From patent publication US6770597B2, “Benzohydrazide derivatives as herbicides and desiccant compositions containing them” (Ishihara Sangyo Kaisha, Ltd., priority 2002, dated 2004)

Columns and labels:
Type in all cases: in vivo
[1] = test system: johnsongrass (Sorghum halepense, SORHA); assay: Greenhouse herbicide screen, post-emerge application, phytotoxicity rating; conditions: POST emergent, 14 days after application, scale 0-100
Excerpt: (§1) A standard greenhouse herbicide activity screening system was used to evaluate the herbicidal efficacy and crop safety of these test compounds. Seven broadleaf weed species including redroot pigweed (Amaranthus retrofiexus, AMARE), velvetleaf (Abutilon theophrasti, ABUTH), sicklepod (Cassia obtusifolia, CASOB), ivyleaf morningglory (Ipomoea hederacea, IPOHE), lambsquarters (Chenopodium album, CHEAL), common ragweed (Ambrosia artemisiifolia L., AMBEL), and cocklebur (Xanthium strumarium, XANST) were used as test species. Four grass weed species including green foxtail (Setaria viridis, SETVI), barnyardgrass (Echinochloa crus-galli, ECHCG), johnsongrass (Sorghum halepense, SORHA), and large crabgrass (Digitaria sanguinalis, DIGSA) were also used. In addition, four crop species, field corn (Zea mays L., var. Dekalb 535, CORN), soybean (Glycine max L., var. Pella 86, SOY), upland rice (Oryza sp., var.Cocodrie, RICE) and wheat (Triticum aestivum L.) were included.
(§2) All plants were grown in 10 cm square plastic pots which were filled with a sandy loam soil mix. For pre-emerge tests, seeds were planted one day prior to application of the test compounds. For post-emerge tests, seeds were planted 8-21 days prior to the test to allow emergence and good foliage development prior to application of the test substances. At the time of the post-emerge application, plants of all species were usually at the 2-3 leaf stage of development.
(§3) All test compounds were dissolved in acetone and applied to the test units in a volume of 187 l/ha. Test materials were applied at rates ranging from 15 g ai/ha to 1000 g ai/ha using a track sprayer equipped with a TJ8001E even flow flat fan spray nozzle. Plants were arranged on a shelf so that the top of the canopy (post-emerge) or top of the soil surface (pre-emerge) was 40-45 cm below the nozzle. Pressurized air was used to force the test solution through the nozzle as it was mechanically advanced (via electrically driven chain drive) over the top of all test plants/pots. This application simulates a typical commercial field herbicide application.
(§4) Pre-emergence tests were top watered immediately after treatment to incorporate the test materials, then routinely top-watered for normal growth. Post-emerge test units were always bottom-watered.
(§5) At 14 days after application of the test materials, phytotoxicity ratings were recorded. A rating scale of 0-100 was used as previously described in Research Methods in Weed Science, 2nd edition, B. Truelove, Ed., Southern Weed Science Society, Auburn University, Auburn, Ala., 1977. Briefly, “0” corresponds to no damage and “100” corresponds to complete death of all plants in the test unit. This scale was used both to determine efficacy against weed species and damage to crop species. Herbicide activity data for various compounds of this invention, which are shown by compound No. in Tables 1-12, are shown in Tables 13 and 14.

[2] = test system: large crabgrass (Digitaria sanguinalis, DIGSA); assay: as above; conditions: POST emergent, 14 days after application, scale 0-100
Excerpt: as §1, §2, §3, §4, §5

[3] = test system: common ragweed (Ambrosia artemisiifolia L., AMBEL); assay: as above; conditions: POST emergent, 14 days after application, scale 0-100
Excerpt: as §1, §2, §3, §4, §5

[4] = test system: green foxtail (Setaria viridis, SETVI); assay: as above; conditions: POST emergent, 14 days after application, scale 0-100
Excerpt: as §1, §2, §3, §4, §5

[5] = test system: redroot pigweed (Amaranthus retrofiexus, AMARE); assay: as above; conditions: POST emergent, 14 days after application
Excerpt: as §1, §2, §3, §4, §5

[6] = test system: velvetleaf (Abutilon theophrasti, ABUTH); assay: as above; conditions: POST emergent, 14 days after application, scale 0-100
Excerpt: as §1, §2, §3, §4, §5

[7] = test system: ivyleaf morningglory (Ipomoea hederacea, IPOHE); assay: as above; conditions: POST emergent, 14 days after application, scale 0-100
Excerpt: as §1, §2, §3, §4, §5

[8] = test system: sicklepod (Cassia obtusifolia, CASOB); assay: as above; conditions: POST emergent, 14 days after application, scale 0-100
Excerpt: as §1, §2, §3, §4, §5

[9] = test system: cocklebur (Xanthium strumarium, XANST); assay: as above; conditions: POST emergent, 14 days after application, scale 0-100
Excerpt: as §1, §2, §3, §4, §5

[10] = test system: lambsquarters (Chenopodium album, CHEAL); assay: as above; conditions: POST emergent, 14 days after application, scale 0-100
Excerpt: as §1, §2, §3, §4, §5

[11] = test system: barnyardgrass (Echinochloa crus-galli, ECHCG); assay: as above; conditions: POST emergent, 14 days after application, scale 0-100
Excerpt: as §1, §2, §3, §4, §5

[12] = test system: johnsongrass (Sorghum halepense, SORHA); assay: Greenhouse herbicide screen, pre-emerge application, phytotoxicity rating; conditions: PRE emergent, 14 days after application, rating scale 0-100
Excerpt: as §1, §2, §3, §4, §5

[13] = test system: large crabgrass (Digitaria sanguinalis, DIGSA); assay: as above; conditions: PRE emergent, 14 days after application, rating scale 0-100
Excerpt: as §1, §2, §3, §4, §5

[14] = test system: common ragweed (Ambrosia artemisiifolia L., AMBEL); assay: as above; conditions: PRE emergent, 14 days after application, rating scale 0-100
Excerpt: as §1, §2, §3, §4, §5

[15] = test system: green foxtail (Setaria viridis, SETVI); assay: as above; conditions: PRE emergent, 14 days after application, rating scale 0-100
Excerpt: as §1, §2, §3, §4, §5

[16] = test system: redroot pigweed (Amaranthus retrofiexus, AMARE); assay: as above; conditions: PRE emergent, 14 days after application, rating scale 0-100
Excerpt: as §1, §2, §3, §4, §5

[17] = test system: velvetleaf (Abutilon theophrasti, ABUTH); assay: as above; conditions: PRE emergent, 14 days after application, rating scale 0-100
Excerpt: as §1, §2, §3, §4, §5

[18] = test system: ivyleaf morningglory (Ipomoea hederacea, IPOHE); assay: as above; conditions: PRE emergent, 14 days after application, rating scale 0-100
Excerpt: as §1, §2, §3, §4, §5

[19] = test system: sicklepod (Cassia obtusifolia, CASOB); assay: as above; conditions: PRE emergent, 14 days after application, rating scale 0-100
Excerpt: as §1, §2, §3, §4, §5

[20] = test system: cocklebur (Xanthium strumarium, XANST); assay: as above; conditions: PRE emergent, 14 days after application, rating scale 0-100
Excerpt: as §1, §2, §3, §4, §5

[21] = test system: lambsquarters (Chenopodium album, CHEAL); assay: as above; conditions: PRE emergent, 14 days after application, rating scale 0-100
Excerpt: as §1, §2, §3, §4, §5

[22] = test system: barnyardgrass (Echinochloa crus-galli, ECHCG); assay: as above; conditions: PRE emergent, 14 days after application, rating scale 0-100
Excerpt: as §1, §2, §3, §4, §5

**Q.** `CC(=NNC(=O)c1cc(-n2c(=O)cc(C(F)(F)F)n(C)c2=O)c(F)cc1Cl)C(C)(C)C` [Compound 6-5, 2-chloro-5-(3,6-dihydro-3-methyl-2,6-dioxo-4-(trifluoromethyl)-1(2H)-pyrimidinyl)-4-fluoro-benzoic Acid, 2-(1,2,2-trimethylpropylidene)hydrazide] was tested. Which “phytotoxicity rating SORHA” value ([1]; 63 g ai/ha) did it give?
**A.** 0

**Q.** What about the “phytotoxicity rating SORHA” value ([1]; 250 g ai/ha) of the same compound?
**A.** 90

**Q.** What about the “phytotoxicity rating DIGSA” value ([2]; 63 g ai/ha) of the same compound?
**A.** 75

**Q.** What about the “phytotoxicity rating DIGSA” value ([2]; 250 g ai/ha) of the same compound?
**A.** 80

**Q.** What about the “phytotoxicity rating AMBEL” value ([3]; 63 g ai/ha) of the same compound?
**A.** 60

**Q.** What about the “phytotoxicity rating AMBEL” value ([3]; 250 g ai/ha) of the same compound?
**A.** 80

**Q.** What about the “phytotoxicity rating SETVI” value ([4]; 63 g ai/ha) of the same compound?
**A.** 30

**Q.** What about the “phytotoxicity rating SETVI” value ([4]; 250 g ai/ha) of the same compound?
**A.** 55

**Q.** And the “phytotoxicity rating AMARE” value ([5]; 63 g ai/ha, scale 0-100 (0 no damage, 100 complete death))?
**A.** 70

**Q.** And the “phytotoxicity rating AMARE” value ([5]; 250 g ai/ha, scale 0-100)?
**A.** 100

**Q.** And the “phytotoxicity rating ABUTH” value ([6]; 63 g ai/ha)?
**A.** 65

**Q.** And the “phytotoxicity rating ABUTH” value ([6]; 250 g ai/ha)?
**A.** 100

**Q.** What about the “phytotoxicity rating IPOHE” value ([7]; 63 g ai/ha) of the same compound?
**A.** 75

**Q.** And the “phytotoxicity rating IPOHE” value ([7]; 250 g ai/ha)?
**A.** 100

**Q.** And the “phytotoxicity rating CASOB” value ([8]; 63 g ai/ha)?
**A.** 50

**Q.** And the “phytotoxicity rating CASOB” value ([8]; 250 g ai/ha)?
**A.** 65

**Q.** What about the “phytotoxicity rating XANST” value ([9]; 63 g ai/ha) of the same compound?
**A.** 70

**Q.** And the “phytotoxicity rating XANST” value ([9]; 250 g ai/ha)?
**A.** 100

**Q.** And the “phytotoxicity rating CHEAL” value ([10]; 63 g ai/ha)?
**A.** 60

**Q.** What about the “phytotoxicity rating CHEAL” value ([10]; 250 g ai/ha) of the same compound?
**A.** 95

**Q.** What about the “phytotoxicity rating ECHCO” value ([11]; 63 g ai/ha) of the same compound?
**A.** 80

**Q.** What about the “phytotoxicity rating ECHCO” value ([11]; 250 g ai/ha) of the same compound?
**A.** 95

**Q.** What about the “phytotoxicity rating SORHA” value ([12]; 63 g ai/ha) of the same compound?
**A.** 85

**Q.** What about the “phytotoxicity rating SORHA” value ([12]; 250 g ai/ha) of the same compound?
**A.** 99

**Q.** What about the “phytotoxicity rating DIGSA” value ([13]; 63 g ai/ha) of the same compound?
**A.** 90

**Q.** What about the “phytotoxicity rating DIGSA” value ([13]; 250 g ai/ha) of the same compound?
**A.** 99

**Q.** What about the “phytotoxicity rating AMBEL” value ([14]; 63 g ai/ha) of the same compound?
**A.** 70

**Q.** And the “phytotoxicity rating AMBEL” value ([14]; 250 g ai/ha)?
**A.** 100

**Q.** And the “phytotoxicity rating SETVI” value ([15]; 63 g ai/ha)?
**A.** 60

**Q.** And the “phytotoxicity rating SETVI” value ([15]; 250 g ai/ha)?
**A.** 85

**Q.** What about the “phytotoxicity rating AMARE” value ([16]; 63 g ai/ha) of the same compound?
**A.** 99

**Q.** And the “phytotoxicity rating AMARE” value ([16]; 250 g ai/ha)?
**A.** 100

**Q.** And the “phytotoxicity rating ABUTH” value ([17]; 63 g ai/ha)?
**A.** 95

**Q.** What about the “phytotoxicity rating ABUTH” value ([17]; 250 g ai/ha) of the same compound?
**A.** 100

**Q.** What about the “phytotoxicity rating IPOHE” value ([18]; 63 g ai/ha) of the same compound?
**A.** 100

**Q.** And the “phytotoxicity rating IPOHE” value ([18]; 250 g ai/ha)?
**A.** 100

**Q.** What about the “phytotoxicity rating CASOB” value ([19]; 63 g ai/ha) of the same compound?
**A.** 50

**Q.** What about the “phytotoxicity rating CASOB” value ([19]; 250 g ai/ha) of the same compound?
**A.** 70

**Q.** What about the “phytotoxicity rating XANST” value ([20]; 63 g ai/ha) of the same compound?
**A.** 55

**Q.** And the “phytotoxicity rating XANST” value ([20]; 250 g ai/ha)?
**A.** 99

**Q.** And the “phytotoxicity rating CHEAL” value ([21]; 63 g ai/ha)?
**A.** 99

**Q.** What about the “phytotoxicity rating CHEAL” value ([21]; 250 g ai/ha) of the same compound?
**A.** 100

**Q.** What about the “phytotoxicity rating ECHCG” value ([22]; 63 g ai/ha) of the same compound?
**A.** 55

**Q.** What about the “phytotoxicity rating ECHCG” value ([22]; 250 g ai/ha) of the same compound?
**A.** 90
